Reference: patent US6686475B2, “Compounds” (Beecham Group p.l.c., priority 1988, dated 2004)

Columns and labels:
[1] = tested on: spontaneously hypertensive rats; experiment: Anti-Hypertensive Activity, blood pressure in spontaneously hypertensive rats; assay type: in vivo
Description: Anti-Hypertensive Activity
Eight month old female, spontaneously hypertensive rats were given test compound once each day for 15 days. Prior to the experiment and on days 8 and 15, the rats were fasted overnight from 5.00 pm and blood pressure was recorded the following morning, immediately prior to dosing and again 2 h later. Food was returned after the 2 h blood pressure reading.
The results below were obtained using the compound of Example 3 as the test compound.

[2] = tested on: C57bl/6 obese (ob/ob) mice; experiment: Obese Mice, Oral Glucose Tolerance Test; assay type: in vivo; conditions: 8 days on diet, oral glucose load 3 g/kg, vs control groups; for inhibition in vivo at 100 µmol/kg: level in diet 100 μmol kg^-1 of diet; for inhibition in vivo at 300 µmol/kg: level in diet 300 μmol kg^-1 of diet; for inhibition in vivo at 30 µmol/kg: level in diet 30 μmol kg^-1 of diet
Description: Obese Mice, Oral Glucose Tolerance Test
C57bl/6 obese (ob/ob) mice were fed on powdered oxoid diet. After at least one week, the mice continued on a powdered oxoid diet or were fed powdered oxoid diet containing the test compound. After 8 days on the supplemented diet all of the mice were fasted for 5 hours prior to receiving an oral load of glucose (3 g/kg). Blood samples for glucose analysis were taken 0, 45, 90 and 135 minutes after glucose administration and the results appear below as the percentage reduction in area under the blood glucose curve where test compound treated groups are compared with the control groups. 7 mice were used for each treatment.

[3] = Mus musculus, 192 h, read-out: % REDUCTION IN AREA UNDER BLOOD GLUCOSE CURVE

| Molecule | inhibition in vivo at 100 µmol/kg [2, 3] [%] | melting point [°C] | also measured |
| --- | --- | --- | --- |
| 5-(4-[2-(N-Methyl-N-(2-benzoxazolyl)amino)ethoxy]benzyl)-2,4-thiazolidinedione hemihydrate [Example 3] |  |  | Blood pressure ([1]; 10 μmole/kg once each day, Day 0 (prior to the experiment), 0 hours): 210 ± 13 mm Hg; Blood pressure ([1]; 10 μmole/kg once each day, Day 8, 0 hours (immediately prior to dosing)): 191 ± 6 mm Hg; Blood pressure ([1]; 10 μmole/kg once each day, Day 8, 2 hours after dosing): 185 ± 12 mm Hg; Blood pressure ([1]; 10 μmole/kg once each day, Day 15, 0 hours (immediately prior to dosing)): 198 ± 17 mm Hg; Blood pressure ([1]; 10 μmole/kg once each day, Day 15, 2 hours after dosing): 185 ± 5 mm Hg; Blood pressure ([1]; 30 μmole/kg once each day, Day 0 (prior to the experiment), 0 hours): 210 ± 13 mm Hg; Blood pressure ([1]; 30 μmole/kg once each day, Day 8, 0 hours (immediately prior to dosing)): 181 ± 11 mm Hg; Blood pressure ([1]; 30 μmole/kg once each day, Day 8, 2 hours after dosing): 174 ± 15 mm Hg; Blood pressure ([1]; 30 μmole/kg once each day, Day 15, 0 hours (immediately prior to dosing)): 178 ± 18 mm Hg; Blood pressure ([1]; 30 μmole/kg once each day, Day 15, 2 hours after dosing): 170 ± 13 mm Hg; % REDUCTION IN AREA UNDER BLOOD GLUCOSE CURVE ([2]; level in diet 10 μmol kg^-1 of diet): 39% |
| CN(CCOc1ccc(CC2SC(=O)NC2=O)cc1)c1nc2ccccc2s1 (centres unmarked) [Example 1, 5-(4-[2-(N-Methyl-N-(2-benzothiazolyl)amino)ethoxy]benzyl)-2,4-thiazolidinedione] | 51 |  |  |
| CN(CCOc1ccc(/C=C2\SC(=O)NC2=O)cc1)c1nc2ccccc2s1 [Example 2, 5-(4-[2-(N-Methyl-N-(2-benzothiazolyl)amino)ethoxy]benzylidene)-2,4-thiazolidinedione] |  |  | inhibition in vivo at 300 µmol/kg [2, 3]: 30% |
| CN(CCOc1ccc(/C=C2\SC(=O)NC2=O)cc1)c1nc2ccccc2o1 [Example 4, 5-(4-[2-(N-Methyl-N-(2-benzoxazolyl)amino)ethoxy]benzylidene)-2,4-thiazolidinedione] |  |  | inhibition in vivo at 300 µmol/kg [2, 3]: 30% |
| CN(CCOc1ccc(CC2SC(=O)NC2=O)cc1)c1ncccn1 (centres unmarked) [Example 5, 5-(4-[2-(N-Methyl-N-(2-pyrimidinyl)amino)ethoxy]benzyl)-2,4-thiazolidinedione] | 40 |  |  |
| Cc1nc(N(C)CCOc2ccc(CC3SC(=O)NC3=O)cc2)sc1C (centres unmarked) [Example 7] |  |  | inhibition in vivo at 50 µmol/kg ([2]; Mus musculus, 192 h, level in diet 50 μmol kg^-1 of diet, read-out: % REDUCTION IN AREA UNDER BLOOD GLUCOSE CURVE): 47% |
| Cc1nc(N(C)CCOc2ccc(/C=C3\SC(=O)NC3=O)cc2)sc1C [Example 8, 5-(4-[2-(N-Methyl-N-[2-(4,5-dimethylthiazolyl)]amino)ethoxy]benzylidene)-2,4-thiazolidinedione] |  | 175 |  |
| CN(CCOc1ccc(CC2SC(=O)NC2=O)cc1)c1nccs1 (centres unmarked) [Example 9, 5-(4-[2-(N-Methyl-N-(2-thiazolyl)amino)ethoxy]benzyl)-2,4-thiazolidinedione] | 58 | 186 |  |
| CN(CCOc1ccc(CC2SC(=O)NC2=O)cc1)c1nc(-c2ccccc2)cs1 (centres unmarked) [Example 11, 5-[4-(2-(N-Methyl-N-(2-(4-phenylthiazolyl))amino)ethoxy)benzyl]-2,4-thiazolidinedione] | 34 | 62 to 65 |  |
| CN(CCOc1ccc(/C=C2\SC(=O)NC2=O)cc1)c1nc(-c2ccccc2)cs1 [Example 12, 5-(4-[2-(N-Methyl-N-(2-(4-phenylthiazolyl))amino)ethoxy]benzylidene)-2,4-thiazolidinedione] |  | 134 |  |
| Cc1sc(N(C)CCOc2ccc(CC3SC(=O)NC3=O)cc2)nc1-c1ccccc1 (centres unmarked) [Example 13, 5-(4-[2-(N-Methyl-N-[2-(4-phenyl-5-methylthiazolyl)]amino)ethoxy]benzyl)-2,4-thiazolidinedione] | 37 | 60 to 62 |  |
| Cc1nc(N(C)CCOc2ccc(CC3SC(=O)NC3=O)cc2)sc1-c1ccccc1 (centres unmarked) [Example 15, 5-(4-[2-(N-Methyl-N-[2-(4-methyl-5-phenylthiazolyl)]amino)ethoxy]benzyl)-2,4-thiazolidinedione] | 39 | 174 |  |
| Cc1csc(N(C)CCOc2ccc(CC3SC(=O)NC3=O)cc2)n1 (centres unmarked) [Example 17, 5-(4-[2-(N-Methyl-N-[2-(4-methylthiazolyl)]amino)ethoxy]benzyl)-2,4-thiazolidinedione] | 34 |  |  |
| CN(CCOc1ccc(CC2SC(=O)NC2=O)cc1)c1ncc(-c2ccccc2)o1 (centres unmarked) [Example 19, 5-[4-(2-(N-Methyl-N-[2-(5-phenyloxazolyl)]amino)ethoxy)benzyl]-2,4-thiazolidinedione] |  | 200 | inhibition in vivo at 30 µmol/kg [2, 3]: 22% |
| CN(CCOc1ccc(/C=C2\SC(=O)NC2=O)cc1)c1ncc(-c2ccccc2)o1 [Example 20, 5-(4-[2-(N-Methyl-N-[2-(5-phenyloxazolyl)]amino)ethoxy]benzylidene)-2,4-thiazolidinedione] |  | 191 |  |
| Cc1nc(N(C)CCOc2ccc(CC3SC(=O)NC3=O)cc2)oc1C (centres unmarked) [Example 21, 5-(4-[2-(N-Methyl-N-[2-(4,5-dimethyloxazolyl)]amino)ethoxy]benzyl)-2,4-thiazolidinedione] |  |  | inhibition in vivo at 30 µmol/kg [2, 3]: 33% |
| O=C1NC(=O)/C(=C/c2ccc(OCCNc3ncccn3)cc2)S1 [Example 24, 5-[4-(2-(2-Pyrimidinylamino)ethoxy)benzylidene]-2,4-thiazolidinedione] |  | 234 | inhibition in vivo at 30 µmol/kg [2, 3]: 15% |
| CC(=O)N(CCOc1ccc(CC2SC(=O)NC2=O)cc1)c1ncccn1 (centres unmarked) [Example 25, 5-(4-[2-(N-Acetyl-N-(2-pyrimidinyl)amino)ethoxy]benzyl)-2,4-thiazolidinedione] |  |  | inhibition in vivo at 30 µmol/kg [2, 3]: 19% |
| O=C1NC(=O)C(Cc2ccc(OCCN(Cc3ccccc3)c3nc4ccccc4s3)cc2)S1 (centres unmarked) [Example 27, 5-(4-(2-(N-(2-Benzothiazolyl)-N-benzylamino)ethoxy)benzyl)-2,4-thiazolidinedione] |  |  | inhibition in vivo at 300 µmol/kg [2, 3]: 56% |
| CN(CCCOc1ccc(/C=C2\SC(=O)NC2=O)cc1)c1nc2ccccc2o1 [Example 29, 5-(4-[3-(N-Methyl-N-(2-benzoxazolyl)amino)propoxy]benzylidene)-2,4-thiazolidinedione] |  | 202 to 204 | inhibition in vivo at 300 µmol/kg [2, 3]: 32% |
| CN(CCOc1ccc(/C=C2\SC(=O)NC2=O)cc1)c1ccccn1 [Example 31, 5-(4-[2-(N-Methyl-N-(2-pyridyl)amino)ethoxy]benzylidene)-2,4-thiazolidinedione] |  | 177 to 179 |  |
| CN(CCCCOc1ccc(/C=C2\SC(=O)NC2=O)cc1)c1nc2ccccc2o1 [Example 32, 5-(4-[4-(N-Methyl-N-(2-benzoxazolyl)amino)butoxy]benzylidene)-2 4-thiazolidinedione] |  | 168 |  |
| CN(CCCCOc1ccc(CC2SC(=O)NC2=O)cc1)c1nc2ccccc2o1 (centres unmarked) [Example 33, 5-(4-[4-(N-Methyl-N-(2-benzoxazolyl)amino)butoxy]benzyl)-2,4-thiazolidinedione] |  | 112 | inhibition in vivo at 300 µmol/kg [2, 3]: 25% |
| O=C1NC(=O)C(Cc2ccc(OCCNc3nc4ccccc4o3)cc2)S1 (centres unmarked) [Example 35, 5-(4-[2-(N-(2-Benzoxazolyl)amino)ethoxy]benzyl)-2,4-thiazolidinedione] | 44 | 202 to 203 |  |
| CC(C)N(CCOc1ccc(CC2SC(=O)NC2=O)cc1)c1nc2ccccc2o1 (centres unmarked) [Example 36, 5-(4-[2-(N-Isopropyl-N-(2-benzoxazolyl)amino)ethoxy]benzyl)-2,4-thiazolidinedione] | 20 |  |  |
